{
  "source": "ChEMBL document CHEMBL2321774",
  "about": "“The C-terminus of Botulinum A Protease Has Profound and Unanticipated Kinetic Consequences Upon the Catalytic Cleft” (ACS Med Chem Lett, 2013)",
  "molecular_target": "Botulinum neurotoxin type A (Clostridium botulinum, UniProt P0DPI0)",
  "sequence (P0DPI0 2-448 limits assumed)": "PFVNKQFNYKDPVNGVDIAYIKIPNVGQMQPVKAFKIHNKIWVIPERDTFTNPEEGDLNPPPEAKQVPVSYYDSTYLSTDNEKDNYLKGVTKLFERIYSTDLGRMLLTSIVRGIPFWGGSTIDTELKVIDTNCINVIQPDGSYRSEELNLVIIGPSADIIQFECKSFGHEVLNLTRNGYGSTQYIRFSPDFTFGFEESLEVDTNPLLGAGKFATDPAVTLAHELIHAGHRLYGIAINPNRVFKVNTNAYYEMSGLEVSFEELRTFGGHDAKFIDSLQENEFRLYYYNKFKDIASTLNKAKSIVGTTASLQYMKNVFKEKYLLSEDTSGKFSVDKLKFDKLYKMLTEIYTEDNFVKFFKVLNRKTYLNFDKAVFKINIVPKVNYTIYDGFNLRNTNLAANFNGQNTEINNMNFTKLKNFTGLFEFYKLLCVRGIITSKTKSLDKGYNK",
  "data": [
    {"smiles": "COC(=O)c1ccc(O)c2nc3c(C=O)c(O)cc(O)c3nc12", "note": "[LOMOFUNGIN]", "values": [
      {"measurement": "Ki", "value": 25, "unit": "µM"}
    ]}
  ]
}
